Laboratory results published in PubChem BioAssay AID651584 (Broad Institute, 2012).
Values joined by “and” are separate entries in the source; they are usually repeats but may differ in a detail not shown here. Equal entries are not always repeated. Active and inactive are the calls of the source.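 Rule for the calls: active = viability loss whose fitted half-maximal potency is at most twice the top valid dose for that sample; inconclusive = flat curve with 30 to 70% viability loss, or poor fit; inactive = the rest.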

Experiments:
[1] = growth inhibition of MALME3 cells – cell-based, CellTiter-Glo luminescence, dry powder, set 5, orthogonal assay for MITF inhibitor project, dose response (AID 651584); details: MALME3 melanoma viability, CellTiter-Glo ATP luminescence, 24 h; at 35 µM (top of the series)
[2] = test system: MALME3 melanoma viability, CellTiter-Glo ATP luminescence, 24 h; assay: as above

**Q.** Which activity change, negative = viability loss [1] does the source give for `NC1=C(NS(=O)(=O)c2ccc(Br)s2)C(=O)c2ccccc2C1=O` here?
**A.** -3.99% (inactive)

**Q.** For `O=C1C=C(Nc2ccccc2)C(=O)c2ccccc21`, which AC50 [2] is on record?
**A.** 5.86 µM and 28.4 µM
